Data on 1 cell line can be found in the supplement of paper PMC10307832.

Test in all cases: relative viability (nuclei count vs DMSO), 5 days (fraction); higher = more cells survive
Compound in experiment [1]: CC1=NC=CC(=C1)C2=CC=C(C=C2)CC(=O)NC3=CC=C(C=C3)C4=CN=CC=C4 [Wnt-C59] + CC(C)C[C@H](NC(=O)[C@H](Cc1ccccc1)NC(=O)c1cnccn1)B(O)O [Bortezomib] (partner 0.002 µM)
The method, boiled down: (§1)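 Lung cancer cell lines in 1536-well plates got either a single drug or a fixed anchor-drug dose together with five library-drug doses (not always all listed) in √10 steps, by pin tool, on the day after seeding. Nuclei were counted after 5 days, and relative viability is the treated-to-vehicle ratio of nuclei counts. Values are medians of duplicate plates.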

Compound in experiment [2]: CC1=NC=CC(=C1)C2=CC=C(C=C2)CC(=O)NC3=CC=C(C=C3)C4=CN=CC=C4 [Wnt-C59] + COc1cc2c(Oc3ccc(NC(=O)C4(C(=O)Nc5ccc(F)cc5)CC4)cc3F)ccnc2cc1OCCCN1CCOCC1 [Foretinib] (partner 0.25 µM)
The method, boiled down: as §1

Compound in experiment [3]: CC1=NC=CC(=C1)C2=CC=C(C=C2)CC(=O)NC3=CC=C(C=C3)C4=CN=CC=C4 [Wnt-C59] + CS(=O)(=O)CCNCc1ccc(-c2ccc3ncnc(Nc4ccc(OCc5cccc(F)c5)c(Cl)c4)c3c2)o1 [Lapatinib] (partner 2 µM)
The method, boiled down: as §1

Take UMC-11: the relative viability in experiment [1] (first compound 0.001 µM) was determined as 0.715; in experiment [1] (first compound 0.01 µM), 0.616; in experiment [1] (first compound 0.03162 µM), 0.75; in experiment [1] (first compound 0.1 µM) it was 0.728; in experiment [2] (first compound 0.001 µM) it was 1.04; in experiment [2] (first compound 0.01 µM) it was 1.01. Further, the relative viability came to 1.06 in experiment [2] (first compound 0.03162 µM); 0.996 in experiment [2] (first compound 0.1 µM); 0.911 in experiment [3] (first compound 0.001 µM); 0.851 in experiment [3] (first compound 0.01 µM); 1.03 in experiment [3] (first compound 0.03162 µM); 0.749 in experiment [3] (first compound 0.1 µM).
